Measurements taken from patent US20220259164A1, “USE OF AMINOTHIOL COMPOUNDS AS CEREBRAL NERVE OR HEART PROTECTIVE AGENT” (SHANGHAI KECHOW PHARMA, INC., priority 2019, published 2022).
Several values for one entry are separate records, joined by “and”; a condition that tells them apart may be missing. Equal entries are not always repeated. Where a SMILES comes first, the peptide text is derived from it. [ ]: non-standard residue; d: D form. NMeC = CN[C@@H](CS)C(=O)O

Columns and labels:
[1] = test system: SD rat cerebral ischemia reperfusion injury model (MCAO); assay: Neurobehavioral evaluation (5-point Longa/Bederson score) in rat ischemic stroke model (MCAO); type: in vivo; parameters: key to Neurological function score After modeling: Longa/Bederson 5-point scale (0-4); higher = more severe deficit; settings: for Neurological function score After modeling: individual rats
Description: Healthy male SPF grade SD rats (body weight 250-300 g) were selected. […] (2) A midline neck incision was made to expose the right common carotid artery, internal carotid artery and external carotid artery. A 6-0 silk thread was used to ligate the distal end of the external carotid artery at 4 mm from the bifurcation of the common carotid artery, another 6-0 silk thread was inserted at the external carotid artery, and a slipknot was tied near the bifurcation of the common carotid artery. (3) An arterial clamp was used to clamp the common carotid artery. […] (4) The thread embolism was removed 90 min after ischemia, the proximal end of the external artery was ligated with a 6-0 silk thread, the neck wound was sutured with a 3-0 silk thread, the wound was disinfected with povidone iodine, the rats were placed on a heating pad, and after being awake, they were placed in a constant temperature rearing box for rearing. […] The experimental animals were scored for signs of neurological function deficit before and after modeling. The scoring standard was given by reference to the 5-point system of Longa and Bederson. The scoring was performed 24 h after the animals were awake from anesthesia. The higher the score, the more severe the behavioral disorder of the animals. 0 point: No nerve damage symptoms […] Inability to fully extend the contralateral front paw […] Turning in a circle to the opposite side […] Falling over to the opposite side 4 points: Inability to walk spontaneously, and loss of consciousness In a manner same as in Example 1, experimental animals were selected, except that the experiment was divided into seven groups (i.e., groups […], and G, among which groups C, D, and E were given different dosages of administration from Example 1, group F was given edaravone, and group G was given amifostine).

[2] = test system: cisplatin-induced nephrotoxicity in SD rats; assay: Cisplatin-induced nephrotoxicity in SD rats: blood creatinine and urea nitrogen; type: in vivo, rat; settings: for Effect on cisplatin-induced increase of blood creatinine and urea nitrogen (in words): 30 min prior to cisplatin 5 mg/kg i.p.: compound B 200 mg/kg i.p., compound A 800 mg/kg p.o., amifostine 200 mg/kg i.p., day 5; for Creatinine / Urea nitrogen: whole blood day 5, individual rats
Protocol: Healthy male SPF grade SD rats (body weight 250-300 g) were selected. Control group: PBS […] Cisplatin+compound B group: 5 mg/kg i.p.+compound B at 200 mg/kg i.p., with compound B being administered 30 min prior to cisplatin administration Cisplatin+amifostine group: 5 mg/kg i.p.+AMI at 200 mg/kg i.p., with AMI being administered 30 min prior to cisplatin administration Cisplatin+compound A group: 5 mg/kg i.p.+compound A at 800 mg/kg p.o., with compound A being administered 30 min prior to cisplatin administration (1) The SD rats used in the experiment were weighed, labeled, and evenly divided into 5 groups, with 3 SD rats in each group. (2) The compound B, compound A, and AMI groups were respectively administered at the planned concentrations. […] (3) The rats were weighed and recorded daily, and on day 5, blood was taken from the intraocular canthus of the SD rats and placed in an anticoagulant tube.

[3] = test system: rat myocardial infarction model (coronary ligation 30 min, reperfusion); assay: Myocardial infarction model: myocardial enzyme LDH in serum; type: in vivo; settings: for Improvement rate (%) of LDH: compared with model group; for LDH: serum, x ± s, n = 10
Protocol: 1. The rats were grouped and administered according to the following methods (2) Compound B (i.v.) at 100 mg/kg (3) Compound A (i.v.) at 100 mg/kg (4) Compound A (oral) at 500 mg/kg (5) Isosorbide mononitrate injection (i.v.) at 1 mg/kg (equivalent to clinical equivalent dose). There were 10 rats in each group, and the rats were administered intravenously immediately after 30 min of ischemia and reperfusion, i.v. 10% 1 min+i.v. drip 90% 30 min. The administration volume was 2 ml/rat. Compound A (oral) at 500 mg/kg was administered intragastrically 2 h after reperfusion when the animal was awake, and the administration volume was 10 ml/kg. Note: Compounds A and B used in this example were in the form of hydrochloride salts thereof. Given intraperitoneal injection of 3% sodium pentobarbital at 60 mg/kg for general anesthesia, the rats were fixed on an operating table in the supine position. The surgical field of the anterolateral chest was depilated and routinely disinfected. The skin and muscular layer were cut open, purse-string suture was performed on the muscular layer, the chest was opened on the left at the fourth intercostal space, and the heart was pulled out with a ring-shaped retractor. At the position of the anterior descending coronary artery 3-4 mm below the left atrial appendage, a 6/0 damage-free silk thread was threaded, and a nylon thread with a diameter of 1.6 mm was juxtaposed and ligated together with the anterior descending coronary artery, while the other end was left outside the body for later use. The heart was placed back into the chest cavity, the air in the chest cavity was emptied, and the chest cavity was closed. 30 min after ligation, the nylon thread was carefully removed for reperfusion. Compared with the normal lead II electrocardiogram (ECG-II), ST segment elevation in ECG-II by 0.1 mV or more 30 min after coronary artery ligation was regarded as successful ischemia. […] Blood was collected from the rats through the abdominal aorta and centrifuged at 3000 rpm×10 min at 4° C., and the upper serum was taken to determine LDH by enzyme-linked immunosorbent assay.

[4] = Example 2 group D: compound A (trifluoroacetate) 400 mg/kg p.o. 2.5 h before reperfusion, 400 mg/kg
[5] = Example 2 group E: compound A (trifluoroacetate) 800 mg/kg p.o. 2.5 h before reperfusion, 800 mg/kg
[6] = compound A (trifluoroacetate) 800 mg/kg p.o. 30 min prior to cisplatin 5 mg/kg i.p.
[7] = compound A (hydrochloride) i.v. 100 mg/kg
[8] = compound A (hydrochloride) oral 500 mg/kg
[9] = Example 2 group C: compound B (trifluoroacetate) 100 mg/kg i.p. 5 min before reperfusion, 100 mg/kg
[10] = compound B (trifluoroacetate) 200 mg/kg i.p. 30 min prior to cisplatin 5 mg/kg i.p.
[11] = compound B (hydrochloride) i.v. 100 mg/kg

## CNC(=O)[C@H](CS)NC(=O)[C@H](CS)NC [Compound A, (R)-3-mercapto-N—((R)-3-mercapto-1-(methylamino)-1-oxoprop-2-yl)-2-(methylamino)propionamide] (H-[NMeC]-Cys-NHMe)
[1]; Example 1 group E: compound A (trifluoroacetate) 1600 mg/kg p.o. 2.5 h before reperfusion, 1600 mg/kg
  % Behavioral improvement: 77.8%
[1]; Example 1 group E: compound A (trifluoroacetate) 1600 mg/kg p.o. 2.5 h before reperfusion, 24 h, 1600 mg/kg
  Neurological function score After modeling: 1 (2×) and 0
[1]; [4]
  % Behavioral improvement: 46.99%
  Neurological function score After modeling: 2 (3×) and 1 (3×)
[1]; [5]
  % Behavioral improvement: 59.01%
  Neurological function score After modeling: 1 (5×) and 2
[2]
  Effect on cisplatin-induced increase of blood creatinine and urea nitrogen (in words): significantly reduce the increased blood creatinine and urea nitrogen levels
[2]; [6]
  Creatinine: 28.4 µmol/L and 18.1 µmol/L and 17.1 µmol/L
  Urea nitrogen: 7.68 mmol/L and 7.16 mmol/L and 10.21 mmol/L
[3]; [7]
  Improvement rate (%) of LDH: 19.9%
  LDH: 1521.6 ± 353.6 U/L
[3]; [8]
  Improvement rate (%) of LDH: 25.8%
  LDH: 1408 ± 308.7 U/L

## CNC(=O)[C@H](CS)NC(=O)[C@H](CS)NC(=O)[C@H](CS)NC [Compound B, (R)-3-mercapto-N—((R)-3-mercapto-1-(((R)-3-mercapto-1-(methylamino)-1-oxoprop-2-yl)amino)-1-oxoprop-2-yl)-2-(methylamino)propionamide] (H-[NMeC]-Cys-Cys-NHMe)
[1]; Example 1 group C: compound B (trifluoroacetate) 200 mg/kg i.p. 5 min before reperfusion, 200 mg/kg
  % Behavioral improvement: 66.7%
[1]; Example 1 group C: compound B (trifluoroacetate) 200 mg/kg i.p. 5 min before reperfusion, 24 h, 200 mg/kg
  Neurological function score After modeling: 0 and 1 (3×) and 2
[1]; Example 1 group D: compound B (trifluoroacetate) 200 mg/kg i.p. during ischemia and 200 mg/kg i.p. 5 min before reperfusion
  % Behavioral improvement: 66.7%
[1]; Example 1 group D: compound B (trifluoroacetate) 200 mg/kg i.p. during ischemia and 200 mg/kg i.p. 5 min before reperfusion, 24 h
  Neurological function score After modeling: 1
[1]; [9]
  % Behavioral improvement: 29.32%
  Neurological function score After modeling: 1 and 2 (4×) and 3
[2]
  Effect on cisplatin-induced increase of blood creatinine and urea nitrogen (in words): significantly reduce the increased blood creatinine and urea nitrogen levels
[2]; [10]
  Creatinine: 18.1 µmol/L and 14.7 µmol/L and 30.4 µmol/L
  Urea nitrogen: 7.28 mmol/L and 5.71 mmol/L and 6.77 mmol/L
[3]; [11]
  Improvement rate (%) of LDH: 22.2%
  LDH: 1476.7 ± 282.4 U/L
